Values of other authors in patent US9801890B2, “Medical methods utilising high purity diaminophenothiazinium compounds” (WisTa Laboratories Ltd., priority 2004, dated 2017).

Columns and labels:
[1] = tested on: HIV; settings: laboratory tests
[2] = tested on: viruses; settings: in vitro
[3] = tested on: West Nile Virus; settings: laboratory tests

CN(C)c1ccc2nc3ccc(N(C)C)cc3[s+]c2c1.[Cl-] [MTC, 3,7-bis(dimethylamino) phenothiazin-5-ium chloride]
effectiveness against virus [1]: effective
viricidal activity [2]: potent viricidal activity
effectiveness against virus [3]: effective
